According to ChEMBL document CHEMBL1146042, “Identification of metabolites of the tryptase inhibitor CRA-9249: observation of a metabolite derived from an unexpected hydroxylation pathway” (Bioorg Med Chem Lett, 2006):
Blank lines part the entries; values can stand above or below the molecule they belong to.

Key:
[1] = molecular target: Tryptase (Homo sapiens, UniProt Q9BZJ3+Q15661+Q9NRR2); assay: Inhibition of mast cell tryptase; format: protein assay
[2] = species: Macaca fascicularis; assay: Stability in cynomolgus monkey liver microsome after 3 hrs; conditions: liver microsomes
[3] = Stability in rat liver microsome after 3 hrs; format: ADME; conditions: liver microsomes, read-out: Stability
[4] = Stability in human liver microsome after 3 hrs; format: ADME; conditions: liver microsomes, read-out: Stability
[5] = Stability in dog liver microsome after 3 hrs; format: ADME, Canis lupus familiaris; conditions: liver microsomes, read-out: Stability
[6] = Stability in mouse liver microsome after 3 hrs; format: ADME; conditions: liver microsomes, read-out: Stability

SMILES: Cn1c(C(F)(F)c2nc3c(F)cc(F)cc3[nH]2)nc2ccc(C(=O)NC(O)COc3ccc(F)cc3)cc21 (stereo unspecified)
Ki [1]: 0.024 µM

SMILES: Cn1c(C(F)(F)c2nc3c(F)cc(F)cc3[nH]2)nc2ccc(C(=O)NCCOc3ccc(F)cc3)cc21
remaining at 3 h [2]: < 10% | remaining at 3 h [3]: 56% | remaining at 3 h [4]: < 10% | Ki [1]: 0.3 µM | remaining at 3 h [5]: < 10% | remaining at 3 h [6]: < 10%

SMILES: Cn1c(C(F)(F)c2nc3c(F)c(O)c(F)cc3[nH]2)nc2ccc(C(=O)NCCOc3ccc(F)cc3)cc21
Ki [1]: 1.4 µM

SMILES: Cn1c(C(F)(F)c2nc3c(F)cc(F)c(O)c3[nH]2)nc2ccc(C(=O)NCCOc3ccc(F)cc3)cc21
Ki [1]: 0.034 µM

Now from value to molecule:

Ki [1]: 2.7 µM
SMILES: Cn1c(C(F)(F)c2nc3c(F)cc(F)cc3[nH]2)nc2ccc(C(N)=O)cc21

Ki [1]: 7 µM
SMILES: Cn1c(C(F)(F)c2nc3c(F)cc(F)cc3[nH]2)nc2ccc(C(=O)NCCO)cc21
